The nature of test [1]: Selectivity ratio is IC 50 value of dopamine receptor to that of serotonin 5-HT.
Test [2] concerns the target Sodium-dependent serotonin transporter (Homo sapiens, UniProt P31645). Kind of test: Ability to inhibit [3H]citalopram binding to serotonin transporter in cynomolgus monkey striatum. As to conditions: target entry is the homologue from another species. It counts as tissue-based, Cercopithecidae.

Sodium-dependent serotonin transporter, sequence (P31645 whole entry): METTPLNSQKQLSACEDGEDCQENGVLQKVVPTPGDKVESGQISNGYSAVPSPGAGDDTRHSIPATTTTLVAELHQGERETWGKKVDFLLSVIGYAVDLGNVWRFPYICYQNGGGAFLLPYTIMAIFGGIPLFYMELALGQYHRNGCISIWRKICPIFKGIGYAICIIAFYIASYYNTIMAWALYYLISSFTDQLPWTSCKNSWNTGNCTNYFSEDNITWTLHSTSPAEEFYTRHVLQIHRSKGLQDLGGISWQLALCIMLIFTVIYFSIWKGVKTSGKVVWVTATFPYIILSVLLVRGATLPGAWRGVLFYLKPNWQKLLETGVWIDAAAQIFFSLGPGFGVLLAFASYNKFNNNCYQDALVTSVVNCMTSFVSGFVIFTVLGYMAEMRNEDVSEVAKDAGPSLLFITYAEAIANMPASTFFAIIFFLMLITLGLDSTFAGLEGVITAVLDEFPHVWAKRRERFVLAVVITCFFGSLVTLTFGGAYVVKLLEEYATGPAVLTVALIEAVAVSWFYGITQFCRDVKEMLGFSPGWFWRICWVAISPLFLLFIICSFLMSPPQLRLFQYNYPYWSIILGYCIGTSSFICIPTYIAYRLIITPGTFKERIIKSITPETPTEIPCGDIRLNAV

In the case of `COC(=O)C1C(c2ccc(I)cc2)CC2CCC1N2C` (configuration not stated), in test [1], the Selectivity ratio is 2. In test [2], this compound displayed a 50% inhibitory concentration (IC50) of 2.53 nM.

`COC(=O)[C@H]1[C@@H](c2ccc(F)cc2)C[C@H]2CC[C@H]1N2C` showed an IC50 in test [2] of 160 nM.

As for `COC(=O)C1C(c2cccc(I)c2)CC2CCC1N2C` (configuration not stated), the Selectivity ratio in test [1] turned out to be 0.4. This compound also displayed an IC50 in test [2] of 9.88 nM.

As for `COC(=O)C1C(c2ccc(Cl)c(Cl)c2)CC2CCC1N2C` (configuration not stated), in test [1], the Selectivity ratio came out at 2. In addition, the 50% inhibitory concentration (IC50) in test [2] was found to be 2.47 nM.

For the compound `COC(=O)C1C2CCC(CC1c1ccc(Cl)c(Cl)c1)N2` (configuration not stated), the IC50 in test [2] stood at 1.4 nM.

Turning to `COC(=O)C1C(c2cccc(Br)c2)CC2CCC1N2C` (configuration not stated), in test [1], the Selectivity ratio came to 3. In test [2], this compound showed a 50% inhibitory concentration (IC50) of 20.4 nM.

On to `COC(=O)C1C2CCC(CC1c1ccc(Cl)cc1)N2` (configuration not stated), for which, in test [1], the Selectivity ratio amounted to 1. The IC50 in test [2] is 1.63 nM.

For orientation: IC50 means the midpoint of a concentration-inhibition curve.
